Laboratory results from ChEMBL document CHEMBL1944561, “Discovery and SAR exploration of a novel series of imidazo[4,5-b]pyrazin-2-ones as potent and selective mTOR kinase inhibitors” (Bioorg Med Chem Lett, 2011).

How the values were obtained:
[1] = biological target: T1, Serine/threonine-protein kinase mTOR (Homo sapiens, UniProt P42345); assay: Inhibition of mTOR-mediated Akt phosphorylation in human PC3 cells; assay type: cell-based, PC-3
PC-3 = assay: Antiproliferative activity against human PC3 cells
[2] = biological target: T1, Serine/threonine-protein kinase mTOR; assay: Inhibition of mTOR
[3] = biological target: T1, Serine/threonine-protein kinase mTOR; assay: Inhibition of mTOR-mediated S6 phosphorylation in human PC3 cells; assay type: cell-based, PC-3
[4] = biological target: Phosphatidylinositol 4,5-bisphosphate 3-kinase catalytic subunit alpha isoform (Homo sapiens, UniProt P42336); assay: Inhibition of PI3Kalpha
[5] = Metabolic stability in rat hepatocytes assessed as compound remaining after 60 mins; assay type: ADME, cell-based, Hepatocyte; conditions: read-out: Stability

Phosphatidylinositol 4,5-bisphosphate 3-kinase catalytic subunit alpha isoform, sequence (P42336 whole entry, canonical isoform): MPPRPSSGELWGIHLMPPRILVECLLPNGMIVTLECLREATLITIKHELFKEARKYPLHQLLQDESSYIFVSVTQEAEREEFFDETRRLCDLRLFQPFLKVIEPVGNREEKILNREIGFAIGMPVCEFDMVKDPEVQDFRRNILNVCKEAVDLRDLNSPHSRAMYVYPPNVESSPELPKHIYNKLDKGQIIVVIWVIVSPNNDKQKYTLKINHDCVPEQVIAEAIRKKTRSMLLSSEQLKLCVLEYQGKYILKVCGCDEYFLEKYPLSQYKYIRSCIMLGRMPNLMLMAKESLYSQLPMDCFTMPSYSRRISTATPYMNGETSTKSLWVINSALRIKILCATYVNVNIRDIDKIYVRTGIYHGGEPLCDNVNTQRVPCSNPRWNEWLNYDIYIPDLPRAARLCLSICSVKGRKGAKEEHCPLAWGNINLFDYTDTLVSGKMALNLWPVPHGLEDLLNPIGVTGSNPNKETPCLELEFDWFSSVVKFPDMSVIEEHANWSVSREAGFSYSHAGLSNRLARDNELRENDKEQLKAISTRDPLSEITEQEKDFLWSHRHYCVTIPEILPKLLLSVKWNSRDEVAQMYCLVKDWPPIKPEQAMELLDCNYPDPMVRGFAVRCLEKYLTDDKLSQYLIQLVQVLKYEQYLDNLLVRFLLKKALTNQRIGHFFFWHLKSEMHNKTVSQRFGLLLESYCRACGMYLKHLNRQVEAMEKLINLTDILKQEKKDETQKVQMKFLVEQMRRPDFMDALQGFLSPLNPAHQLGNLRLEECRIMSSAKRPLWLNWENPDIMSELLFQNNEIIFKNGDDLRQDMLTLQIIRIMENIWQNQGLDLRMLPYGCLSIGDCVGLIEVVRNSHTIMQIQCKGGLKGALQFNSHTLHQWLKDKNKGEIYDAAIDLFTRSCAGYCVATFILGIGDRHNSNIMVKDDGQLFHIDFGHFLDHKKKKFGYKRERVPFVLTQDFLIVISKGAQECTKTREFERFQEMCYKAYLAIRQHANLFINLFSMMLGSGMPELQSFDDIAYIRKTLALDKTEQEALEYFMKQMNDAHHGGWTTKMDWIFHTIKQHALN

NC(=O)[C@H]1CC[C@@H](n2c(=O)[nH]c3ncc(-c4ccc(O)cc4)nc32)CC1
IC50 [1]: > 5000 nM
IC50 (PC-3): > 5000 nM
IC50 [2]: 179 nM
IC50 [3]: > 5000 nM

O=c1[nH]c2ncc(-c3ccc4[nH]cnc4c3)nc2n1CC1CCOCC1
IC50 [2]: 30 nM

NCc1ccc(-c2cnc3[nH]c(=O)n(CC4CCCCC4)c3n2)cc1
IC50 [2]: 8300 nM

O=c1[nH]c2ncc(-c3ccc(O)cc3)nc2n1Cc1cccc(O)c1
IC50 [2]: 1050 nM

CC(C)n1c(=O)[nH]c2ncc(-c3ccc(O)cc3)nc21
IC50 [2]: 1040 nM

CC(C)Cn1c(=O)[nH]c2ncc(-c3ccc(O)cc3)nc21
IC50 [2]: 1020 nM

O=c1[nH]c2ncc(-c3ccc4cc[nH]c4c3)nc2n1CC1CCCCC1
IC50 [2]: 3500 nM

O=c1[nH]c2ncc(-c3ccc(O)cc3)nc2n1C1CCOCC1
IC50 [2]: 1670 nM

O=C(O)c1ccc(-c2cnc3[nH]c(=O)n(CC4CCCCC4)c3n2)cc1
IC50 [2]: 130 nM
IC50 [4]: 23500 nM

Nc1nc2cc(-c3cnc4[nH]c(=O)n(CC5CCOCC5)c4n3)ccc2[nH]1
IC50 [2]: 10 nM

NC(=O)c1ccc(-c2cnc3[nH]c(=O)n(CC4CCCCC4)c3n2)cc1
IC50 [2]: 70 nM
IC50 [4]: > 30000 nM

O=c1[nH]c2ncc(-c3ccc(-c4nc[nH]n4)cc3)nc2n1CC1CCCCC1
IC50 [2]: 9 nM

COCCn1c(=O)[nH]c2ncc(-c3ccc(O)cc3)nc21
IC50 [2]: 2380 nM

O=c1[nH]c2ncc(-c3ccc(O)cc3)nc2n1C1CCCCC1
IC50 [2]: 2880 nM

O=c1[nH]c2ncc(-c3ccccc3)nc2n1CC1CCCCC1
IC50 [2]: > 10000 nM

Nc1nc2ccc(-c3cnc4[nH]c(=O)n(CC5CCCCC5)c4n3)cc2[nH]1
IC50 [1]: 92 nM
IC50 (PC-3): 566 nM
IC50 [2]: 2 nM
IC50 [3]: 201 nM

NC(=O)[C@H]1CC[C@H](n2c(=O)[nH]c3ncc(-c4ccc(O)cc4)nc32)CC1
IC50 [1]: > 5000 nM
IC50 (PC-3): > 5000 nM
IC50 [2]: 178 nM
IC50 [3]: > 5000 nM

O=c1[nH]c2ncc(-c3ccc(O)cc3)nc2n1CC1CCCCC1
IC50 [2]: 780 nM

CN1CCC(Cn2c(=O)[nH]c3ncc(-c4ccc(O)cc4)nc32)CC1
IC50 [2]: 14100 nM

O=c1[nH]c2ncc(-c3ccc(-c4cnco4)cc3)nc2n1CC1CCCCC1
IC50 [2]: 1360 nM

O=c1[nH]c2ncc(-c3cnc4[nH]cnc4c3)nc2n1CC1CCOCC1
IC50 [2]: 390 nM

CNC(=O)c1ccc(-c2cnc3[nH]c(=O)n(CC4CCCCC4)c3n2)cc1
IC50 [2]: 120 nM

O=c1[nH]c2ncc(-c3ccc(-c4nn[nH]n4)cc3)nc2n1CC1CCCCC1
IC50 [2]: 1590 nM

CNc1nc2cc(-c3cnc4[nH]c(=O)n(CC5CCOCC5)c4n3)ccc2[nH]1
IC50 (PC-3): > 5000 nM
IC50 [2]: 6 nM
IC50 [4]: > 30000 nM
IC50 [3]: > 5000 nM

O=c1[nH]c2ncc(-c3ccc(CO)cc3)nc2n1CC1CCCCC1
remaining at 1 h [5]: 8%
IC50 [2]: 60 nM
IC50 [4]: > 30000 nM

CC(C)NC(=O)c1ccc(-c2cnc3[nH]c(=O)n(CC4CCCCC4)c3n2)cc1
IC50 [2]: 8900 nM

O=c1[nH]c2ncc(-c3ccc(-n4ccnn4)cc3)nc2n1CC1CCCCC1
IC50 [2]: > 10000 nM

O=c1[nH]c2ncc(-c3ccc4[nH]ccc4c3)nc2n1CC1CCOCC1
IC50 [1]: 50 nM
IC50 (PC-3): 602 nM
IC50 [2]: 21 nM
IC50 [4]: > 30000 nM
IC50 [3]: 231 nM

O=c1[nH]c2ncc(-c3ccc(-c4cn[nH]c4)cc3)nc2n1CC1CCCCC1
IC50 [2]: 120 nM
IC50 [4]: > 30000 nM

O=c1[nH]c2ncc(-c3ccc(O)cc3)nc2n1CC1CCOCC1
IC50 [2]: 340 nM

O=c1[nH]c2ncc(-c3ccc4[nH]ncc4c3)nc2n1CC1CCCCC1
IC50 (PC-3): 2120 nM
IC50 [2]: 190 nM
IC50 [4]: 12600 nM
IC50 [3]: 633 nM

O=c1[nH]c2ncc(-c3ccc(-c4ncc[nH]4)cc3)nc2n1CC1CCOCC1
IC50 (PC-3): 916 nM

COC(=O)c1ccc(-c2cnc3[nH]c(=O)n(CC4CCCCC4)c3n2)cc1
IC50 [2]: > 10000 nM

O=c1[nH]c2ncc(-c3ccc4[nH]ccc4c3)nc2n1CC1CCCCC1
IC50 [2]: 63 nM
IC50 [4]: > 30000 nM

CO[C@H]1C[C@@H]2CC[C@@H](C)[C@@](O)(O2)C(=O)C(=O)N2CCCC[C@H]2C(=O)O[C@H]([C@H](C)C[C@@H]2CC[C@@H](O)[C@H](OC)C2)CC(=O)[C@H](C)/C=C(\C)[C@@H](O)[C@@H](OC)C(=O)[C@H](C)C[C@H](C)/C=C/C=C/C=C/1C [SIROLIMUS]
IC50 (PC-3): < 10 nM
